# Source: ChEMBL document CHEMBL1143841, “Improved assessment of plasmodium vivax response to antimalarial drugs by a colorimetric double-site plasmodium lactate dehydrogenase antigen capture enzyme-linked immunosorbent assay” (Antimicrob Agents Chemother, 2007)
# Columns and labels:
# Format in all cases: functional, organism-based
# Plasmodium vivax [1] = assay: Growth inhibition of Plasmodium vivax isolate 1 assessed as parasite LDH synthesis after 48 hrs by double-site Plasmodium LDH antigen capture enzyme-linked immunosorbent assay
# Plasmodium vivax [2] = assay: Growth inhibition of Plasmodium vivax isolate 2 assessed as parasite LDH synthesis after 48 hrs by double-site Plasmodium LDH antigen capture enzyme-linked immunosorbent assay
# Plasmodium vivax [3] = assay: Growth inhibition of Plasmodium vivax isolate 3 assessed as parasite LDH synthesis after 48 hrs by double-site Plasmodium LDH antigen capture enzyme-linked immunosorbent assay
# Plasmodium vivax [4] = assay: Growth inhibition of Plasmodium vivax isolate 4 assessed as parasite LDH synthesis after 48 hrs by double-site Plasmodium LDH antigen capture enzyme-linked immunosorbent assay
smiles,measurement,setting,value
CCN(CC)CCCC(C)Nc1ccnc2cc(Cl)ccc12 (centres undefined) [CHLOROQUINE],IC50,Plasmodium vivax [1],0.0055 µM
same,IC50,Plasmodium vivax [2],0.0119 µM
same,IC50,Plasmodium vivax [3],0.0899 µM
same,IC50,Plasmodium vivax [4],0.18 µM
